Values after ≈ are worked out from the molar mass of the structure shown. Where two headings read alike, the source gives them in different places.
How the values were obtained:
Type in all cases: cell-based
[1] = tested on: P388 lymphocytic leukemia cell line; test: P388 lymphocytic leukemia cell line bioassay; settings: Mus musculus, pure compound
786-0 = test: NCI cell line panel; settings: Homo sapiens, Renal Cancer; for GI50: read-out: Log10 GI50 (converted); for IC (TGI): read-out: Log10 TGI (converted)
Source text: (§1) Only two hundred years ago, many diseases ravaged humankind. Many of these diseases now have been controlled or eradicated. In the development of the means to treat or control these diseases, work with the appropriate common experimental animals was of critical importance. With the various types of cancers, and with the HIV virus, such work is presently ongoing. The research for the treatment of various types of cancer is coordinated in the United States by the National Cancer Institute (NCI). NCI, as a government entity, has been charged with assisting anti-cancer research. To establish whether a substance has anti-cancer activity, NCI has established a variety of protocols, one of which involves testing the candidate substance against a cell line panel containing 60 human tumor cell lines. This protocol has been verified and is generally accepted throughout the scientific community. This protocol and the established statistical means of evaluating the results obtained therefrom have been fully described in the literature. See Principles & Practice of Oncology PPO Updates, Volume 3, Number 10, October 1989, by Michael R. Boyd, M.D., Ph.D., for an in depth description of the test protocol. The statistical analysis is explained in "Display and Analysis of Patterns of Differential Activity of Drugs Against Human Tumor Cell Lines: Development of Means Graph and COMPARE Algorithm" Journal of the National Cancer Institute Reports Vol. 81, No. 14, Pg. 1088, Jul. 14, 1989, by K. D. Paull et al. Both of these references are incorporated herein by this reference thereto. The effectiveness and validity of the NCI in vitro protocol continues to be verified.

A498 = test: NCI cell line panel; settings: Homo sapiens; for GI50: A498, Renal Cancer, read-out: Log10 GI50 (converted)
Source text: as §1

ACHN = test: NCI cell line panel; settings: Homo sapiens, Renal Cancer; for GI50: read-out: Log10 GI50 (converted)
Source text: as §1

BT-549 = test: NCI cell line panel; settings: Homo sapiens
Source text: as §1

CCRF-CEM = test: NCI cell line panel; settings: Homo sapiens, Leukemia; for GI50: read-out: Log10 GI50 (converted)
Source text: as §1

HOP-92 = test: NCI cell line panel; settings: Homo sapiens, Non-Small Cell Lung Cancer, read-out: Log10 GI50 (converted)
Source text: as §1

IGROV1 = test: NCI cell line panel; settings: Homo sapiens, IGROV-1, Ovarian Cancer; for GI50: read-out: Log10 GI50 (converted); for IC (TGI): read-out: Log10 TGI (converted)
Source text: as §1

MDA-MB-231/ATCC = test: NCI cell line panel; settings: Homo sapiens, Breast Cancer, read-out: Log10 GI50 (converted)
Source text: as §1

NCI-H226 = test: NCI cell line panel; settings: Homo sapiens, Non-Small Cell Lung Cancer, read-out: Log10 GI50 (converted)
Source text: as §1

OVCAR-3 = test: NCI cell line panel; settings: Homo sapiens, Ovarian Cancer, read-out: Log10 GI50 (converted)
Source text: as §1

OVCAR-4 = test: NCI cell line panel; settings: Homo sapiens, Ovarian Cancer, read-out: Log10 GI50 (converted)
Source text: as §1

OVCAR-5 = test: NCI cell line panel; settings: Homo sapiens
Source text: as §1

RPMI-8226 = test: NCI cell line panel; settings: Homo sapiens, Leukemia, read-out: Log10 GI50 (converted)
Source text: as §1

SF-268 = test: NCI cell line panel; settings: Homo sapiens, CNS Cancer; for GI50: read-out: Log10 GI50 (converted); for IC (TGI): read-out: Log10 TGI (converted)
Source text: as §1

SF-295 = test: NCI cell line panel; settings: Homo sapiens
Source text: as §1

SNB-19 = test: NCI cell line panel; settings: Homo sapiens; for IC (TGI): read-out: Log10 TGI (converted)
Source text: as §1

SR = test: NCI cell line panel; settings: Homo sapiens, Leukemia, read-out: Log10 GI50 (converted)
Source text: as §1

TK-10 = test: NCI cell line panel; settings: Homo sapiens
Source text: as §1

HCT-116 = test: NCI cell line panel; settings: Homo sapiens, Colon Cancer, read-out: Log10 GI50 (converted)
Source text: as §1

HT29 = test: NCI cell line panel; settings: Homo sapiens, HT-29; Colon Cancer; read-out: Log10 GI50 (converted)
Source text: as §1

KM12 = test: NCI cell line panel; settings: Homo sapiens, KM12, read-out: Log10 GI50 (converted)
Source text: as §1

MALME-3M = test: NCI cell line panel; settings: Homo sapiens, read-out: Log10 GI50 (converted)
Source text: as §1

MDA-MB-435 = test: NCI cell line panel; settings: Homo sapiens, Breast Cancer, read-out: Log10 GI50 (converted)
Source text: as §1

MDA-N = test: NCI cell line panel; settings: Homo sapiens, Breast Cancer, read-out: Log10 GI50 (converted)
Source text: as §1

NCI-H460 = test: NCI cell line panel; settings: Homo sapiens
Source text: as §1

NCI-H522 = test: NCI cell line panel; settings: Homo sapiens, Non-Small Cell Lung Cancer, read-out: Log10 GI50 (converted)
Source text: as §1

SK-MEL-2 = test: NCI cell line panel; settings: Homo sapiens, Melanoma, read-out: Log10 GI50 (converted)
Source text: as §1

SK-MEL-5 = test: NCI cell line panel; settings: Homo sapiens, Melanoma, read-out: Log10 GI50 (converted)
Source text: as §1

UACC-62 = test: NCI cell line panel; settings: Homo sapiens, UACC-62, read-out: Log10 GI50 (converted)
Source text: as §1

[2] = read-out: Log10 TGI (converted)

C=C(Cl)/C=C/C(O)CC(=C)CC1OC2C(C)C(OC(=O)CC3CC(O)CC4(CC(C)(O)CC(C=C5COC(C(C)C(=O)CC6CC(OC)CC7(CC(O)CC(/C=C\CCCC8OC(O)(CC(O)C8C)C2O)O7)O6)C5C)O4)O3)C1O (centres unmarked) [spongistatin 5]
IC50 ([1]; PS (P388), read-out: ED50 (the source's name)): 0.066 ng/mL (≈ 0.058 nM) | GI50 (786-0): 0.0251 nM | IC (TGI) (786-0): 1.2 nM | LC50 (50% lethal concentration) (A498; A498, read-out: Log10 LC50 (converted)): 87.1 nM | GI50 (A498): 0.0257 nM | GI50 (ACHN): 0.562 nM | GI50 (BT-549; BT-549, read-out: Log10 GI50 (converted)): 0.219 nM | GI50 (CCRF-CEM): 0.017 nM | IC (TGI) (CCRF-CEM; [2]): 4.17 nM | GI50 (HOP-92): 1.41 nM | GI50 (IGROV1): 0.141 nM | IC (TGI) (IGROV1): 95.5 nM | GI50 (MDA-MB-231/ATCC): 0.251 nM | GI50 (NCI-H226): 0.759 nM | GI50 (OVCAR-3): 0.0151 nM | GI50 (OVCAR-4): 14.1 nM | GI50 (OVCAR-5; OVCAR-5, read-out: Log10 GI50 (converted)): 4.07 nM | GI50 (RPMI-8226): 0.0129 nM | GI50 (SF-268): 0.151 nM | IC (TGI) (SF-268): 100 nM | GI50 (SF-295; SF-295, CNS Cancer, read-out: Log10 GI50 (converted)): 0.011 nM | GI50 (SNB-19; SNB-19, read-out: Log10 GI50 (converted)): 0.407 nM | IC (TGI) (SNB-19; SNB-19, CNS Cancer): 100 nM | GI50 (SR): 0.012 nM | GI50 (TK-10; TK-10, Renal Cancer, read-out: Log10 GI50 (converted)): 36.3 nM

C=C/C=C/C(O)CC(=C)CC1OC2C(C)C(OC(=O)CC3CC(O)CC4(CC(C)(O)CC(C=C5COC(C(C)C(=O)CC6CC(OC)CC7(CC(O)CC(/C=C\CCCC8OC(O)(CC(O)C8C)C2O)O7)O6)C5C)O4)O3)C1O (centres unmarked) [spongistatin 7]
IC50 ([1]; P388, unit inferred, read-out: P388 ED50): 2.6 ng/mL (≈ 2.36 nM) | GI50 (786-0): 2 nM | IC (TGI) (786-0): 100 nM | GI50 (A498): 2.69 nM | GI50 (ACHN): 10 nM | IC (TGI) (ACHN; [2]): 100 nM | IC (TGI) (BT-549; BT-549, Breast Cancer, read-out: Log10 TGI (converted)): 100 nM | GI50 (CCRF-CEM): 0.24 nM | GI50 (HCT-116): 0.288 nM | GI50 (HOP-92): 5.25 nM | GI50 (HT29): 1.51 nM | GI50 (IGROV1): 0.617 nM | IC (TGI) (IGROV1): 67.6 nM | GI50 (KM12): 0.219 nM | GI50 (MALME-3M): 0.398 nM | GI50 (MDA-MB-231/ATCC): 1.58 nM | GI50 (MDA-MB-435): 0.0191 nM | GI50 (MDA-N): 0.0151 nM | GI50 (NCI-H226): 2 nM | GI50 (NCI-H460; NCI-H460, read-out: Log10 GI50 (converted)): 2.09 nM | IC (TGI) (NCI-H460; NCI-H460, Non-Small Cell Lung Cancer, read-out: Log10 TGI (converted)): 100 nM | GI50 (NCI-H522): 0.0282 nM | GI50 (OVCAR-3): 0.0759 nM | GI50 (OVCAR-4): 24 nM | GI50 (OVCAR-5; OVCAR-5, Ovarian Cancer, read-out: Log10 GI50 (converted)): 20.9 nM | GI50 (RPMI-8226): 0.708 nM | GI50 (SF-268): 6.31 nM | IC (TGI) (SF-268): 100 nM | GI50 (SF-295; SF-295, read-out: Log10 GI50 (converted)): 0.407 nM | GI50 (SK-MEL-2): 0.347 nM | GI50 (SK-MEL-5): 0.0851 nM | GI50 (SNB-19; SNB-19, CNS Cancer, read-out: Log10 GI50 (converted)): 8.32 nM | IC (TGI) (SNB-19; SNB-19, CNS Cancer): 100 nM | GI50 (SR): 0.0912 nM | GI50 (TK-10; TK-10, read-out: Log10 GI50 (converted)): 56.2 nM | IC (TGI) (TK-10; TK-10, Renal Cancer, read-out: Log10 TGI (converted)): 100 nM | GI50 (UACC-62): 0.309 nM

Source: patent publication US5393897A, “Isolation and structure of spongistatins 5,7,8 and 9” (Arizona Board of Regents acting on behalf of Arizona State …, priority 1993, dated 1995)
